How the values were obtained:
[1] = test system: LPS-IFN—induced nitrite production; test: MIF-dependent nitrite production in peritoneal macrophages (Greiss assay); format: cell-based, mouse; details: for inhibition at 100 µM: Mus musculus, Peritoneal macrophage, compound 100 μM, LPS 10 ng/ml + interferon-γ 10 units/ml, 24 h, read-out: % Inhibition of nitrite (± SD)
Experimental: MIF is able to induce or facilitate the expression and release of a wide variety of pro-inflammatory and/or destructive molecules, including the release of macrophage nitric oxide (NO) ^(20). A compound with the ability to inhibit the cytokine or biological function of MIF might be expected to inhibit the activation of NO production by macrophages.
C57BL6/J male mice were injected intraperitoneally with 2 ml of thioglycolate. Three days later peritoneal macrophages were collected by lavaging the peritoneum with 3 ml of cold Hank's buffered saline solution. Cells from several mice were pooled, washed and re-suspended in DMEM supplemented with 5% FCS. Cells were plated in 96 well plastic tissue culture plates at 1×10^5 cells/well. Cells were treated in triplicate wells with compound or vehicle for 1 hour in a 5% CO2 incubator at 37° C. Cells were then treated with LPS (10 ng/ml) and recombinant human interferon-γ (10 units/ml) and incubated for 24 hours. After 24 hours, 50 μl of supernatant from each well was carefully removed and transferred to ELISA plates. The production of NO was measured by analysing the concentration of nitrite in culture supernatants, as measured by the Greiss assay ^(21). The results were calculated as the percentage inhibition of nitrite concentration in compound-treated cell culture supernatants, compared to that of vehicle-treated cells.

[2] = test system: MIF-induced proliferation of mouse NIH 3T3 fibroblasts; test: MIF-induced proliferation in mouse fibroblasts (3H-thymidine incorporation); format: cell-based; details: Compound (10×^10−6M) + MIF 50 ng/ml; nil 1087, MIF + vehicle 1452
Experimental: The activity of compounds was studied in a bioassay utilising MIF-induced proliferation of mouse NIH 3T3 fibroblasts. […] NIH 3T3 cells were propagated in DMEM/10% foetal calf serum (FCS). Prior to experimentation, cells were seeded at 10^4 cells/well in 96-well plates in DMEM/10% FCS for 18 hours. The media was then replaced with DMEM/0.1% FCS and the cells incubated for a further 18 hr. At time point −1 hr, culture medium was replaced with DMEM/0.1% FCS and cells were treated with a compound of the invention at a final concentration of 10 μM or vehicle. At time point zero, cells were treated with MIF at a final concentration of 50 ng/ml. At time point 6 hr the cells were pulsed with 1 µCi/well of ^3H-thymidine. At time point 24 hours, cells were harvested using a semi-automated cell harvester. The radioactivity incorporated into DNA was determined by liquid scintillation counting, with results expressed as ^3H-thymidine incorporation (cpm). Statistical significance was analysed using the Mann-Whitney test.

[3] = test system: LPS-induced serum IL-1, IL-6, and TNF; test: Mouse endotoxic shock model (serum cytokines by ELISA); format: in vivo; details: for effect on serum IL-1: 5 mg/kg; for IL-1 (pg/ml), serum: 5 mg/kg i.p. 24 h and 1 h before LPS 5 mg/kg, saline 175 ± 43, LPS plus vehicle 428 ± 168; for IL-1 (pg/ml), serum / IL-6 (ng/ml), serum / TNF (pg/ml), serum: 1.5 h after LPS; for effect on serum IL-6 / effect on serum TNF: 15 mg/kg; for IL-6 (ng/ml), serum / TNF (pg/ml), serum: 15 mg/kg i.p. 24 h and 1 h before LPS 5 mg/kg; for IL-6 (ng/ml), serum: saline 4 ± 4, LPS plus vehicle 118 ± 30; for TNF (pg/ml), serum: saline 189 ± 69, LPS plus vehicle 2022 ± 1245
From the text: The activity of compounds was studied in the murine endotoxic shock model. In this model, features of shock, characterised by increased serum levels of cytokines such as IL-1, tumor necrosis factor (TNF), and interleukin 6 (IL-6), are induced by the injection of bacterial lipoloysaccharide (LPS). The in vivo production of IL-1, IL-6, and TNF in response to endotoxin has been previously shown to be dependent on MIF ^(23).
Groups of four mice were used in each experiment. Endotoxaemia was induced by intra-peritoneal injection of lipopolysaccharide (LPS) (5 mg/kg) in 300 μl saline. Mice injected with saline alone were used as a control group. Treatments were administered by intra-peritoneal injection at intervals 24 hours and 1 hour before intra-peritoneal LPS injection. Mice were treated with saline, compounds dissolved in DMSO/saline vehicle at a dose of 5-15 mg/kg body weight, or vehicle (containing matching concentrations of DMSO).
After 1.5 hours mice were humanely killed by CO2 inhalation then neck dislocation. Serum was obtained from blood obtained by cardiac puncture prior to death and measured for the concentration of cytokines including IL-1, TNF, and/or IL-6, by ELISA. Statistical significance was analysed using the Mann-Whitney test.

[4] = test system: IL-1 induced COX-2 expression; test: Combination of MIF-antagonist with glucocorticoid: IL-1 induced fibroblast COX-2 expression; format: cell-based, human; details: IL-1 + dexamethasone 1 nM alone; control 0.7400, IL-1 49.37
Experimental: S112 human dermal fibroblasts were propagated in RPMI/10% foetal calf serum (FCS). Prior to experimentation, cells were seeded at 2×10^5 cells/ml in RPMI/0.1% BSA for 18 hours. Cells were treated with compound at 1-100 μM and 30 minutes later with recombinant human IL-1 (0.1 ng/ml). After 6 hours, cells were collected and intracellular COX-2 protein determined by permeabilisation flow cytometry, as described by Sampey et al ^(18). Cells permeabilised with 0.2% saponin were sequentially labelled with a mouse anti-human COX-2 monoclonal antibody and with sheep-anti-mouse F(ab)2 fragment labelled with fluoroscein isothiocyanate. Cellular fluorescence was determined using a flow cytometer. At least 5000 events were counted for each reading, each of which was performed in duplicate, and the results expressed in mean fluorescence intensity (MFI) after subtraction of negative control-labelled cell fluorescence.
The above in vitro assay (Biological Example 2) for analysing the effect of MIF antagonists on IL-1 induced COX-2 expression was performed using 2-(2-hydroxyethoxy)-2-(4′-hydroxy-3′-methylphenyl)-1,3-dioxolane (Compound 1) (50 μM), dexamethasone (1 nM) or a combination of dexamethasone (1 nM) and Compound 1 (50 μM). COX-2 expression was expressed as the mean fluorescence intensity (MFI) as measured by flow cytometry, after deduction of the MFI for control-labelled samples, as described by Sampey et al. ^(18).

Compound	inhibition at 100 µM [1] [%]	melting point [°C]	Mean cpm (3H-thymidine incorporation) [2] [cpm]	effect on serum IL-1 [3]	IL-1 (pg/ml), serum [3] [pg/mL]	effect on serum IL-6 [3]	effect on serum TNF [3]	IL-6 (ng/ml), serum [3] [ng/mL]	TNF (pg/ml), serum [3] [pg/mL]	further results
Brc1ccc(C2NCCS2)cc1 (centres unmarked) [Compound 4, 2-(4-Bromophenyl)-1,3-thiazolane]	22 ± 1	107								
COc1ccc(C2NCCS2)cc1 (centres unmarked) [Compound 5, 2-(4-Methoxyphenyl)-1,3-thiazolane]	22 ± 2	94 to 95								
COc1cc(C2NCCS2)ccc1O (centres unmarked) [Compound 7, 2-(4-Hydroxy-3-methoxyphenyl)-1,3-thiazolane]	15 ± 1	158 to 161	1281							
COc1ccc(C2NCCS2)cc1OC (centres unmarked) [Compound 8, 2-(3,4-Dimethoxyphenyl)-1,3-thiazolane]		54 to 56	1238							
COc1ccc(-c2cnn(CCC(C)C)c2)cc1 [Compound 12, 4-(4-Methoxyphenyl)-1-(3-methylbutyl)-1H-pyrazole]	78 ± 9			inhibitory effect	286 ± 102	inhibitory effect	inhibitory effect	80 ± 16	1636 ± 468	
Cc1ccc(-c2cnn(CCC(C)C)c2)cc1 [Compound 13, 1-(3-Methylbutyl)-4-(4-methylphenyl)-1H-pyrazole]	91 ± 8		1015	inhibitory effect	305 ± 51	inhibitory effect	inhibitory effect	92 ± 7	1067 ± 191	inhibition of LPS-IFN—induced nitrite production ([1]; 0.5-100 μM, FIG. 8): dose-responsive inhibition
CCCCCCC1(c2ccc(C)cc2)SCCS1 [Compound 17, 2-Hexyl-2-(4-methylphenyl)-1,3-dithiolane]	69 ± 2		933.2							inhibition of LPS-induced serum IL-6 ([3]; 5 and 15 mg/kg, FIG. 10b): marked inhibition; inhibition of LPS-induced serum TNF ([3]; 5 and 15 mg/kg, FIG. 10c): marked inhibition; inhibition of LPS-induced serum IL-1 ([3]; 5 and 15 mg/kg, statistically significant P<0.05, FIG. 10a): marked inhibition
c1csc(-c2ccc(C3OCCS3)cc2)c1 (centres unmarked) [Compound 33, 2-(4-Thien-2-ylphenyl)-1,3-oxathiolane]	47 ± 4			inhibitory effect	360 ± 72	inhibitory effect	inhibitory effect	95 ± 14	1152 ± 317	
C[C@@H]1C[C@H]2[C@@H]3CCC4=CC(=O)C=C[C@]4(C)[C@@]3(F)[C@@H](O)C[C@]2(C)[C@@]1(O)C(=O)CO [DEX, dexamethasone, reference compound]										Mean COX-2 expression (MFI) [4]: 15.13 MFI

Reference: patent US7863313B2, “Methods for the treatment of inflammatory diseases” (Cortical PTY LTD, priority 2003, dated 2011)
